# Data: patent US5475001A, “Quinazoline derivatives” (Zeneca Limited, priority 1993, dated 1995)
# pIC50: −log10 of the molar value.
# How the values were obtained:
# [1] = molecular target: T1, receptor tyrosine kinase (Homo sapiens, UniProt P00533); assay: in vitro inhibition of the enzyme receptor tyrosine kinase (Test (a)); assay type: biochemical; details: enzyme from A-431 cells, EGF stimulated
# T1 construct: Receptor tyrosine kinase was obtained in partially purified form from A-431 cells; endogenous in cells; host or cells: A-431 cells (human vulval carcinoma), Triton X-100 solubilised membrane extract
# Procedure: (a) An in vitro assay which determines the ability of a test compound to inhibit the enzyme receptor tyrosine kinase. Receptor tyrosine kinase was obtained in partially purified form from A-431 cells (derived from human vulval carcinoma) by procedures related to those described by Carpenter et. al., J. Biol. Chem., 1979, 254, 4884, Cohen et al., J. Biol. Chem., 1982, 257, 1523 and by Braun et al., J. Biol. Chem., 1984, 259, 2051.
# A-431 cells were grown to confluence using Dulbecco's modified Eagle's medium (DMEM) containing 5% fetal calf serum (FCS). The obtained cells were homogenised in a hypotonic borate/EDTA buffer at pH 10.1. The homogenate was centrifuged at 400 g for 10 minutes at 0°-4° C. The supernatant was centrifuged at 25,000 g for 30 minutes at 0°-4° C. The pelleted material was suspended in 30 mM Hepes buffer at pH 7.4 containing 5% glycerol, 4 mM benzamidine and 1% Triton X-100, stirred for 1 hour at 0°-4° C., and recentrifuged at 100,000 g for 1 hour at 0°-4° C. The supernatant, containing solubilised receptor tyrosine kinase, was stored in liquid nitrogen.
# For test purposes 40 μl of the enzyme solution so obtained was added to a mixture of 400 μl of a mixture of 150 mM Hepes buffer at pH 7.4, 500 μM sodium orthovanadate, 0.1% Triton X-100, 10% glycerol, 200 μl water, 80 μl of 25 mM DTT and 80μl of a mixture of 12.5 mM manganese chloride, 125 mM magnesium chloride and distilled water. There was thus obtained the test enzyme solution. […]
# The test compound/EGF mixture solution (5 μl) was added to the test enzyme solution (10 μl) and the mixture was incubated at 0°-4° C. for 30 minutes. […] Radioactivity present in the filter paper was measured using a liquid scintillation counter (Sequence A). […]
# Receptor tyrosine kinase inhibition was calculated as follows: [formula]
# The extent of inhibition was then determined at a range of concentrations of test compound to give an IC50 value.
# [2] = system: human naso-pharyngeal cancer cell line KB; assay: in vitro inhibition of the growth of the human naso-pharyngeal cancer cell line KB (Test (b)); assay type: cell-based; details: 72 h, KB cells, EGF (10 ng/ml), 3 days, MTT
# Procedure: (b) An in vitro assay which determines the ability of a test compound to inhibit the growth of the human naso-pharyngeal cancer cell line KB.
# KB cells were seeded into wells at a density of 1×10^4 -1.5×10^4 cells per well and grown for 24 hours in DMEM supplemented with 5% FCS (charcoal-stripped). Cell growth was determined after incubation for 3 days by the extent of metabolism of MTT tetrazolium dye to furnish a bluish colour. Cell growth was then determined in the presence of EGF (10 ng/ml) or in the presence of EGF (10 ng/ml) and a test compound at a range of concentrations. An IC50 value could then be calculated.
# [3] = system: liver hepatocyte growth; assay: in vivo inhibition of TGFα-stimulated liver hepatocyte growth in male rats (Test (c)); details: Rattus norvegicus, po
# Procedure: (c) An in vivo assay in a group of male rats which determines the ability of a test compound (usually administered orally as a ball-milled suspension in 0.5% polysorbate) to inhibit the stimulation of liver hepatocyte growth caused by the administration of the growth factor TGFα (400 μg/kg subcutaneously, usually dosed twice, 3 and 7 hours respectively after the administration of the test compound).
# In a control group of rats, the administration of TGFα causes on average a 5-fold stimulation of liver hepatocyte growth.
# Cell-growth in the control and test animals is determined as follows:
# On the morning of the day after the dosing of the test compound (or 0.5% polysorbate in the control group), the animals are dosed with bromodeoxyuridine (BrdU; 100 mg/kg intraperitoneally). The animals are killed four hours later and the livers are excised.
# Further tests were carried out using a range of doses of the test compounds to allow the calculation of an approximate ED50 value for the inhibition of liver hepatocyte proliferation as determined by inhibition of the uptake of BrdU.
# [4] = system: another carcinoma which does not express EGF receptor tyrosine kinase; details: Toi et al., 1990; cited from earlier work
# [5] = system: human mammary carcinoma which expresses epidermal growth factor (EGF) receptor tyrosine kinase; details: athymic nude mice; Toi et al., 1990; cited from earlier work
# T1 sequence (P00533 25-1210): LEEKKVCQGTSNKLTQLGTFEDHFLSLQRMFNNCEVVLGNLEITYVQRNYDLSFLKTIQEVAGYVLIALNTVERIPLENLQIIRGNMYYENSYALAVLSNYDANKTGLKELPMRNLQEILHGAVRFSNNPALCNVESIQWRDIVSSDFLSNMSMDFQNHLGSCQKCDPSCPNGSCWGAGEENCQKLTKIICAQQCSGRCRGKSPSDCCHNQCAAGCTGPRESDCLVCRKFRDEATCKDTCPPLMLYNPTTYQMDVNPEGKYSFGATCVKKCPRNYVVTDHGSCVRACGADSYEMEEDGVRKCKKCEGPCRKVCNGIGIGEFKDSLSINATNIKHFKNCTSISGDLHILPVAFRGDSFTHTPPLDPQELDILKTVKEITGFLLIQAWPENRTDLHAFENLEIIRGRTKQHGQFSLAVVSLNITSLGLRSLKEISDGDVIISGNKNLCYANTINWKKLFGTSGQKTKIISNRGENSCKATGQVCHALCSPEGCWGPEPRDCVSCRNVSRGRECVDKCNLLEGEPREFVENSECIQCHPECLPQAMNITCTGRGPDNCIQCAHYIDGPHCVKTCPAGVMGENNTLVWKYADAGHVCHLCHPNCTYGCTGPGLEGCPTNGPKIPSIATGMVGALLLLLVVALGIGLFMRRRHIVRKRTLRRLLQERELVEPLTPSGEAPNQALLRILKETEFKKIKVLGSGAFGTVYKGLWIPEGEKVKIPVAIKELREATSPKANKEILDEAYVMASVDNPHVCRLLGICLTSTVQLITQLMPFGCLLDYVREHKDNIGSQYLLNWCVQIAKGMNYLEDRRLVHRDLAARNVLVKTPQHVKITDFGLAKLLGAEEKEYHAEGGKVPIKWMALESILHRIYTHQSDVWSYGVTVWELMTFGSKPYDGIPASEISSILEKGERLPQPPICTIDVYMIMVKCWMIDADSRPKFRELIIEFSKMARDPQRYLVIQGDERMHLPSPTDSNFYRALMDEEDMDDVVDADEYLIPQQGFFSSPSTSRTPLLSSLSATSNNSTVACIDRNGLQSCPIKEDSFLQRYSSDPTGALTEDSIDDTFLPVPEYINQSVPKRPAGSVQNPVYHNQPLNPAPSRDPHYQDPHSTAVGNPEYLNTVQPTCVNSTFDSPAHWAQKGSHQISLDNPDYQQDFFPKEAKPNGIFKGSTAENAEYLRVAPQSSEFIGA
# T1 sequence (P01133 971-1023 partner limits assumed): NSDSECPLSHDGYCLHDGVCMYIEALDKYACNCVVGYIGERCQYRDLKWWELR
Structure (SMILES),pIC50 [1],pIC50 [2],ED50 [3],growth of another carcinoma which does not express EGF receptor tyrosine kinase [4],growth of transplanted human mammary carcinoma expressing EGF receptor tyrosine kinase [5]
Cc1cccc(Nc2ncnc3cc(F)c(N)cc23)c1 [6-amino-7-fluoro-4-(3'-methylanilino)quinazoline],7.12,6.17,< 40 mg/kg,–,–
Cc1cccc(Nc2ncnc3cc(F)c(NC(=O)CCl)cc23)c1 [6-(2-chloroacetamido)-7-fluoro-4-(3'-methylanilino)quinazoline],8.00,7.70,–,–,–
O=CN/C=C/c1cc(O)ccc1O [erbstatin],–,–,–,without effect on the growth,specifically attenuates the growth
COc1cc2c(Nc3ccc(F)c(Cl)c3)ncnc2cc1F [4-(3'-chloro-4'-fluoroanilino)-7-fluoro-6-methoxyquinazoline],7.15,6.28,< 12.5 mg/kg,–,–
